In PubChem BioAssay AID1963970 (Molecular Pharmacology Branch, DTP, NCI, 2024):
pIC50: −log10 of the molar value.

Test system: 931267-113-T-J1-PDC multicell spheroid viability
Assay: Anticancer human tumor 931267-113-T-J1-PDC patient-derived colon adenocarcinoma cell line growth inhibition [PI3K]
Conditions: for pIC50: curve of first compound; for viability, T/C: stronger effect = lower value
Procedure, shortened: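 We assembled tumor spheroids that included a stromal compartment of HUVEC and MSCs, then exposed them to targeted agents alone and together with PI3K pathway inhibitors. Concentration series descended by half-log from clinically achievable Cmax levels. Viability served as the endpoint.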

[1] = second compound 0.0316 µM, first compound 0.0316 µM
[2] = second compound 0.0316 µM, first compound 0.1 µM
[3] = second compound 0.1 µM, first compound 0.0316 µM
[4] = second compound 0.1 µM, first compound 0.1 µM
[5] = second compound 0.316 µM, first compound 0.0316 µM
[6] = second compound 0.316 µM, first compound 0.1 µM
[7] = second compound 1 µM, first compound 0.0316 µM
[8] = second compound 1 µM, first compound 0.1 µM
[9] = second compound 3.16 µM, first compound 0.0316 µM
[10] = second compound 3.16 µM, first compound 0.1 µM
[11] = second compound 10 µM, first compound 0.0316 µM
[12] = second compound 10 µM, first compound 0.1 µM
[13] = second compound 0.0316 µM, first compound 0.316 µM
[14] = second compound 0.0316 µM, first compound 1 µM
[15] = second compound 0.0316 µM, first compound 3.16 µM
[16] = second compound 0.0316 µM, first compound 10 µM
[17] = second compound 0.1 µM, first compound 0.316 µM
[18] = second compound 0.1 µM, first compound 1 µM
[19] = second compound 0.1 µM, first compound 3.16 µM
[20] = second compound 0.1 µM, first compound 10 µM
[21] = second compound 0.316 µM, first compound 0.316 µM
[22] = second compound 0.316 µM, first compound 1 µM
[23] = second compound 0.316 µM, first compound 3.16 µM
[24] = second compound 0.316 µM, first compound 10 µM
[25] = second compound 1 µM, first compound 0.316 µM
[26] = second compound 1 µM, first compound 1 µM
[27] = second compound 1 µM, first compound 3.16 µM
[28] = second compound 1 µM, first compound 10 µM
[29] = second compound 3.16 µM, first compound 0.316 µM
[30] = second compound 3.16 µM, first compound 1 µM
[31] = second compound 3.16 µM, first compound 3.16 µM
[32] = second compound 3.16 µM, first compound 10 µM
[33] = second compound 10 µM, first compound 0.316 µM
[34] = second compound 10 µM, first compound 1 µM
[35] = second compound 10 µM, first compound 3.16 µM
[36] = second compound 10 µM, first compound 10 µM
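Note: viability read 7 days after compound addition.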

Work on `CC(C)n1nc(-c2ccc3oc(N)nc3c2)c2c(N)ncnc21` + Cc1nc(NC(=O)N2CCCC2C(N)=O)sc1-c1ccnc(C(C)(C)C(F)(F)F)c1 yielded a pIC50 (second compound 0.0316 µM) of 7.04, a pIC50 (second compound 0.1 µM) of 7.11 and a pIC50 (second compound 0.316 µM) of 7.16. For the same compound, the pIC50 (second compound 1 µM) was 7.24, the pIC50 (second compound 3.16 µM) was 7.60 and the pIC50 (second compound 10 µM) was 8.08. For the same compound, the viability, T/C (second compound 0.0316 µM, first compound 0.000316 µM) was 97.2%, the viability, T/C (second compound 0.0316 µM, first compound 0.001 µM) was 84.3% and the viability, T/C (second compound 0.0316 µM, first compound 0.00316 µM) was 81.5%. The viability, T/C (second compound 0.0316 µM, first compound 0.01 µM) was 101%, the viability, T/C [1] was 78.3% and the viability, T/C [2] was 47.6%. For the same compound, the viability, T/C (second compound 0.1 µM, first compound 0.000316 µM) was 97.3%, the viability, T/C (second compound 0.1 µM, first compound 0.001 µM) was 91.1% and the viability, T/C (second compound 0.1 µM, first compound 0.00316 µM) was 89.9%. For the same compound, the viability, T/C (second compound 0.1 µM, first compound 0.01 µM) was 92.6%, the viability, T/C [3] was 79.7% and the viability, T/C [4] was 41.5%. The viability, T/C (second compound 0.316 µM, first compound 0.000316 µM) was 88.8%, the viability, T/C (second compound 0.316 µM, first compound 0.001 µM) was 91.9% and the viability, T/C (second compound 0.316 µM, first compound 0.00316 µM) was 86.8%. The viability, T/C (second compound 0.316 µM, first compound 0.01 µM) was 85.5%, the viability, T/C [5] was 68.4% and the viability, T/C [6] was 41.5%. For the same compound, the viability, T/C (second compound 1 µM, first compound 0.000316 µM) was 78.9%, the viability, T/C (second compound 1 µM, first compound 0.001 µM) was 72.3% and the viability, T/C (second compound 1 µM, first compound 0.00316 µM) was 72.7%. For the same compound, the viability, T/C (second compound 1 µM, first compound 0.01 µM) was 66.8%, the viability, T/C [7] was 64.1% and the viability, T/C [8] was 38.3%. It also gave a viability, T/C (second compound 3.16 µM, first compound 0.000316 µM) of 68.8%, a viability, T/C (second compound 3.16 µM, first compound 0.001 µM) of 67.8% and a viability, T/C (second compound 3.16 µM, first compound 0.00316 µM) of 62.1%. For the same compound, the viability, T/C (second compound 3.16 µM, first compound 0.01 µM) was 58.4%, the viability, T/C [9] was 48.4% and the viability, T/C [10] was 30.7%. For the same compound, the viability, T/C (second compound 10 µM, first compound 0.000316 µM) was 62.3%, the viability, T/C (second compound 10 µM, first compound 0.001 µM) was 52.3% and the viability, T/C (second compound 10 µM, first compound 0.00316 µM) was 55.6%. It also gave a viability, T/C (second compound 10 µM, first compound 0.01 µM) of 45.7%, a viability, T/C [11] of 44% and a viability, T/C [12] of 24.1%.

In the case of `CCCS(=O)(=O)Nc1ccc(F)c(C(=O)c2c[nH]c3ncc(-c4ccc(Cl)cc4)cc23)c1F` + Cc1nc(NC(=O)N2CCCC2C(N)=O)sc1-c1ccnc(C(C)(C)C(F)(F)F)c1, the pIC50 (second compound 0.0316 µM) was 5.21, the pIC50 (second compound 0.1 µM) was 5.22 and the pIC50 (second compound 0.316 µM) was 5.26. The pIC50 (second compound 1 µM) was 5.27, the pIC50 (second compound 3.16 µM) was 5.34 and the pIC50 (second compound 10 µM) was 5.62. The viability, T/C [1] was 104%, the viability, T/C [2] was 98% and the viability, T/C [13] was 121%. The viability, T/C [14] was 131%, the viability, T/C [15] was 113% and the viability, T/C [16] was 6.2%. The viability, T/C [3] was 99.5%, the viability, T/C [4] was 105% and the viability, T/C [17] was 105%. The viability, T/C [18] was 118%, the viability, T/C [19] was 120% and the viability, T/C [20] was 5.03%. It also gave a viability, T/C [5] of 100%, a viability, T/C [6] of 91% and a viability, T/C [21] of 95.7%. It also gave a viability, T/C [22] of 108%, a viability, T/C [23] of 91.2% and a viability, T/C [24] of 4.47%. The viability, T/C [7] was 87.8%, the viability, T/C [8] was 80.5% and the viability, T/C [25] was 91.5%. It also gave a viability, T/C [26] of 96.6%, a viability, T/C [27] of 89.6% and a viability, T/C [28] of 4.19%. The viability, T/C [9] was 69%, the viability, T/C [10] was 82.1% and the viability, T/C [29] was 77.7%. The viability, T/C [30] was 72.5%, the viability, T/C [31] was 70.7% and the viability, T/C [32] was 4.52%. It also gave a viability, T/C [11] of 61.2%, a viability, T/C [12] of 60.9% and a viability, T/C [33] of 65.3%. The viability, T/C [34] was 63.7%, the viability, T/C [35] was 46% and the viability, T/C [36] was 3.36%.

Work on `C[C@@H](NC(=O)c1ncnc(N)c1Cl)c1ncc(C(=O)Nc2cc(C(F)(F)F)c(Cl)cn2)s1` + CC(Nc1ncnc2nc[nH]c12)c1cc2cccc(Cl)c2c(=O)n1-c1ccccc1 yielded a pIC50 (second compound 0.0316 µM) of under 5.00, a pIC50 (second compound 0.1 µM) of under 5.00 and a pIC50 (second compound 0.316 µM) of under 5.00. For the same compound, the pIC50 (second compound 1 µM) was under 5.00, the pIC50 (second compound 3.16 µM) was under 5.00 and the pIC50 (second compound 10 µM) was under 5.00. The viability, T/C [1] was 107%, the viability, T/C [2] was 117% and the viability, T/C [13] was 117%. It also gave a viability, T/C [14] of 104%, a viability, T/C [15] of 92.7% and a viability, T/C [16] of 74.5%. The viability, T/C [3] was 121%, the viability, T/C [4] was 107% and the viability, T/C [17] was 110%. The viability, T/C [18] was 111%, the viability, T/C [19] was 98.9% and the viability, T/C [20] was 78.1%. The viability, T/C [5] was 113%, the viability, T/C [6] was 116% and the viability, T/C [21] was 104%. It also gave a viability, T/C [22] of 110%, a viability, T/C [23] of 103% and a viability, T/C [24] of 75.1%. The viability, T/C [7] was 115%, the viability, T/C [8] was 114% and the viability, T/C [25] was 105%. For the same compound, the viability, T/C [26] was 110%, the viability, T/C [27] was 107% and the viability, T/C [28] was 69.4%. It also gave a viability, T/C [9] of 98.5%, a viability, T/C [10] of 108% and a viability, T/C [29] of 103%. For the same compound, the viability, T/C [30] was 95.8%, the viability, T/C [31] was 98.2% and the viability, T/C [32] was 66.5%. For the same compound, the viability, T/C [11] was 96.4%, the viability, T/C [12] was 107% and the viability, T/C [33] was 99.8%. For the same compound, the viability, T/C [34] was 106%, the viability, T/C [35] was 86% and the viability, T/C [36] was 53.2%.

Compound `Cn1ncc(Cl)c1-c1cc(C(=O)NC(CN)Cc2cccc(F)c2)sc1Cl` (stereo not drawn) + COc1c(OCCCN2CCOCC2)ccc2c3n(c(=NC(=O)c4cnc(N)nc4)nc12)CCN3 has a pIC50 (second compound 0.00316 µM) of 5.23, a pIC50 (second compound 0.01 µM) of 5.24 and a pIC50 (second compound 0.0316 µM) of 5.31. For the same compound, the pIC50 (second compound 0.1 µM) was 5.44, the pIC50 (second compound 0.316 µM) was over 7.50 and the pIC50 (second compound 1 µM) was over 7.50. It also gave a viability, T/C (second compound 0.00316 µM, first compound 0.0316 µM) of 95.1%, a viability, T/C (second compound 0.00316 µM, first compound 0.1 µM) of 102% and a viability, T/C (second compound 0.00316 µM, first compound 0.316 µM) of 89.5%. For the same compound, the viability, T/C (second compound 0.00316 µM, first compound 1 µM) was 81.8%, the viability, T/C (second compound 0.00316 µM, first compound 3.16 µM) was 75.9% and the viability, T/C (second compound 0.00316 µM, first compound 10 µM) was 30.8%. It also gave a viability, T/C (second compound 0.01 µM, first compound 0.0316 µM) of 109%, a viability, T/C (second compound 0.01 µM, first compound 0.1 µM) of 95.4% and a viability, T/C (second compound 0.01 µM, first compound 0.316 µM) of 87.4%. It also gave a viability, T/C (second compound 0.01 µM, first compound 1 µM) of 76%, a viability, T/C (second compound 0.01 µM, first compound 3.16 µM) of 69.6% and a viability, T/C (second compound 0.01 µM, first compound 10 µM) of 35.6%. It also gave a viability, T/C [1] of 90%, a viability, T/C [2] of 93.2% and a viability, T/C [13] of 82.4%. For the same compound, the viability, T/C [14] was 75.3%, the viability, T/C [15] was 60.2% and the viability, T/C [16] was 34%. The viability, T/C [3] was 71.1%, the viability, T/C [4] was 70.3% and the viability, T/C [17] was 70.1%. The viability, T/C [18] was 60%, the viability, T/C [19] was 54.3% and the viability, T/C [20] was 32.2%. For the same compound, the viability, T/C [5] was 47.9%, the viability, T/C [6] was 50.4% and the viability, T/C [21] was 45.2%. The viability, T/C [22] was 47.3%, the viability, T/C [23] was 47.5% and the viability, T/C [24] was 22.1%. It also gave a viability, T/C [7] of 34.7%, a viability, T/C [8] of 35.6% and a viability, T/C [25] of 35.5%. For the same compound, the viability, T/C [26] was 33.9%, the viability, T/C [27] was 34.8% and the viability, T/C [28] was 20%.
